Laboratory results published in ChEMBL document CHEMBL1150339, “Synthesis and anti-breast cancer activities of substituted quinolines” (Bioorg Med Chem Lett, 2008).
Active and inactive are the calls of the source. No cut-off for these calls is given here.

tested on: T47D; experiment: Cell viability of human T47D cells by trypan blue exclusion assay; type: functional, cell-based

In order of falling IC50:
1. COc1cc(NCc2cccs2)c2nccc(C)c2c1Oc1cccc(C(F)(F)F)c1  3730 nM
2. CCOC(=N)CCNc1cc(OC)c(Oc2cccc(C(F)(F)F)c2)c2c(C)ccnc12  1970 nM
3. COc1cc(NCc2cnc[nH]2)c2nccc(C)c2c1Oc1cccc(C(F)(F)F)c1  1280 nM
4. COc1cc(NCCC(=N)N)c2nccc(C)c2c1Oc1cccc(C(F)(F)F)c1  519 nM
5. COc1cc(NCCC#N)c2nccc(C)c2c1Oc1cccc(C(F)(F)F)c1  378 nM
6. COc1cc(NCCCN)c2nccc(C)c2c1Oc1cccc(C(F)(F)F)c1  119 nM
7. COc1cc(NCc2ccco2)c2nccc(C)c2c1Oc1cccc(C(F)(F)F)c1  15.6 nM

tested on: T47D; experiment: Cell viability of human T47D cells at 10 uM by trypan blue exclusion assay; type: functional, cell-based

For `COc1cc(N)c2nccc(C)c2c1Oc1cccc(C(F)(F)F)c1`, the Activity was “inactive”.
